In paper PMC9253107, “Engineering of ultraID, a compact and hyperactive enzyme for proximity-dependent biotinylation in living cells” (Communications Biology, 2022):

Molecular target: T1, microID (BioID2 [2-171]); with L41P = ultraID (Aquifex aeolicus, UniProt O66837, R40G/L41P)
T1 construct: gene birA; pET22b, E. coli BL21(DE3), IMAC purified
Experiment: ELISA-based biotinylation assay, streptavidin-alkaline phosphatase
Assay type: biochemical
Settings: 50 µM biotin, 2.5 mM ATP, 5 mM MgCl2, pH 7.5, 37 °C, 10 min; acceptor human serum albumin

T1 sequence (O66837 entry or part of it R40G/L41P): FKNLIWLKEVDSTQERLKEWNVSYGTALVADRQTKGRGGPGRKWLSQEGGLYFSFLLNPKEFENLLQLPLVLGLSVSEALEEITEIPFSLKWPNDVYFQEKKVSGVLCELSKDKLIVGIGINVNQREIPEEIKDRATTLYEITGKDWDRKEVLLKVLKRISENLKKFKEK

`O=C(O)CCCC[C@@H]1SC[C@@H]2NC(=O)N[C@@H]21` [biotin] was tested, and the “ELISA-based biotinylation assay, streptavidin-alkaline phosphatase” value was “combined R40G/L41P mutations showed the highest activity of all tested variants”.
